Laboratory results as given in US20260262643A1, “HERBICIDAL BENZOXAZINES” (FMC CORPORATION, priority 2022, published 2026).

Tests used:
[1] = test system: wheat; test: Test A postemergence; format: in vivo, Triticum aestivum; settings: postemergence, 10 days
In short: (§1)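 Visual injury ratings on a 0–100 scale (100 = complete control) versus untreated controls, taken 10 days after treatment in greenhouse. Preemergence: directed soil spray onto seeded loam/sand. Postemergence: foliar application at one- to two-leaf stage, plants 2–10 cm. Formulation: non-phytotoxic solvent plus surfactant.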

[2] = test system: blackgrass; test: Test A postemergence; format: in vivo, Alopecurus myosuroides; settings: postemergence, 10 days
In short: as §1

[3] = test system: corn; test: Test A postemergence; format: in vivo, Zea mays; settings: postemergence, 10 days
In short: as §1

[4] = test system: foxtail, giant; test: Test A preemergence; format: in vivo, Setaria faberi; settings: 0 to 100 scale
In short: as §1

[5] = test system: barnyardgrass; test: Test A preemergence; format: in vivo, Echinochloa crusgalli; settings: visual injury after 10 days, 0 to 100 scale, 0 is no effect, 100 is complete control
In short: as §1

[6] = test system: horseweed; test: Test A postemergence; format: in vivo, Erigeron canadensis; settings: postemergence, 10 days
In short: as §1

[7] = test system: corn; test: Test A preemergence; format: in vivo, Zea mays; settings: 0 to 100 scale
In short: as §1

[8] = test system: barnyardgrass; test: Test A postemergence; format: in vivo, Echinochloa crusgalli; settings: postemergence, 10 days
In short: as §1

[9] = test system: ragweed; test: Test A preemergence; format: in vivo, Ambrosia artemisiifolia; settings: 0 to 100 scale
In short: as §1

[10] = test system: oat, wild; test: Test A postemergence; format: in vivo, Avena fatua; settings: postemergence, 10 days
In short: as §1

[11] = test system: sedge, umbrella; test: Test B flooded paddy test; format: in vivo, Cyperus difformis; settings: 250 g ai/ha, Flood, 13 days, 0 to 100 scale (0 no effect, 100 complete control)
In short: (§2)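 Species grown to 2-leaf stage; pots flooded 3 cm above soil and compound applied directly to paddy water, depth maintained throughout. After 13 days in greenhouse, plants visually rated against controls on 0–100 scale (0 no effect, 100 complete control); dash means no result.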

[12] = test system: ryegrass, Italian; test: Test A postemergence; format: in vivo, Lolium multiflorum; settings: postemergence, 10 days
In short: as §1

[13] = test system: oat, wild; test: Test A preemergence; format: in vivo, Avena fatua; settings: 0 to 100 scale
In short: as §1

[14] = test system: rice; test: Test B flooded paddy test; format: in vivo, Oryza sativa; settings: 250 g ai/ha, Flood, 13 days, 0 to 100 scale (0 no effect, 100 complete control)
In short: as §2

[15] = test system: ducksalad; test: Test B flooded paddy test; format: in vivo, Heteranthera limosa; settings: 250 g ai/ha, Flood, 13 days, 0 to 100 scale (0 no effect, 100 complete control)
In short: as §2

[16] = test system: blackgrass; test: Test A preemergence; format: in vivo, Alopecurus myosuroides; settings: 0 to 100 scale
In short: as §1

[17] = test system: pigweed, palmer; test: Test A postemergence; format: in vivo, Amaranthus palmeri; settings: 500 g ai/ha, postemergence, 10 days, visual injury, 0 to 100 scale (0 no effect, 100 complete control)
In short: as §1

[18] = test system: barnyardgrass; test: Test B flooded paddy test; format: in vivo, Echinochloa crus-galli; settings: 250 g ai/ha, Flood, 13 days, 0 to 100 scale (0 no effect, 100 complete control)
In short: as §2

[19] = test system: kochia; test: Test A postemergence; format: in vivo, Bassia scoparia; settings: postemergence, 10 days
In short: as §1

[20] = test system: soybean; test: Test A preemergence; format: in vivo, Glycine max; settings: 0 to 100 scale
In short: as §1

[21] = test system: wheat; test: Test A preemergence; format: in vivo, Triticum aestivum; settings: 0 to 100 scale
In short: as §1

[22] = test system: kochia; test: Test A preemergence; format: in vivo, Bassia scoparia; settings: 0 to 100 scale
In short: as §1

[23] = test system: foxtail, giant; test: Test A postemergence; format: in vivo, Setaria faberi; settings: postemergence, 10 days
In short: as §1

[24] = test system: galium; test: Test A postemergence; format: in vivo, Galium aparine; settings: 500 g ai/ha, postemergence, 10 days, visual injury, 0 to 100 scale (0 no effect, 100 complete control)
In short: as §1

[25] = test system: ryegrass, Italian; test: Test A preemergence; format: in vivo, Lolium multiflorum; settings: 0 to 100 scale
In short: as §1

[26] = test system: soybean; test: Test A postemergence; format: in vivo, Glycine max; settings: postemergence, 10 days
In short: as §1

[27] = test system: pigweed, palmer; test: Test A preemergence; format: in vivo, Amaranthus palmeri; settings: 0 to 100 scale
In short: as §1

[28] = test system: ragweed; test: Test A postemergence; format: in vivo, Ambrosia artemisiifolia; settings: postemergence, 10 days
In short: as §1

[29] = 125 g ai/ha, 0 to 100 scale, 0 no effect, 100 complete control
[30] = 500 g ai/ha, visual injury, 0 to 100 scale (0 no effect, 100 complete control)
[31] = 500 g ai/ha, visual injury after 10 days, 0 is no effect, 100 is complete control

With `Cc1nc(C)n(-c2cccc(C(=O)N3C[C@H](C)Oc4c(Cl)cccc43)c2)n1` [Compound 142] the “Wheat plant response rating” value [1, 29] was 10, the “Plant response rating, Wheat” value [1, 30] was 10 and the “Blackgrass plant response rating” value [2, 29] was 0. For the same molecule, the “Plant response rating, Blackgrass” value [2, 30] was 60, the “Corn plant response rating” value [3, 29] was 10 and the “Plant response rating, Corn” value [3, 30] was 10. The “Plant response rating, Foxtail, Giant” value ([4]; 125 g ai/ha) was 30, the “Plant response rating, Foxtail, Giant” value [4, 31] was 90 and the “Plant response rating, Barnyardgrass” value ([5]; 125 g ai/ha) was 30. For the same molecule, the “Plant response rating, Barnyardgrass” value ([5]; 500 g ai/ha) was 50, the “Horseweed plant response rating” value [6, 29] was 0 and the “Plant response rating, Horseweed” value [6, 30] was 0. For the same molecule, the “Plant response rating, Corn” value ([7]; 125 g ai/ha) was 0, the “Plant response rating, Corn” value [7, 31] was 10 and the “Barnyardgrass plant response rating” value [8, 29] was 10. The “Plant response rating, Barnyardgrass” value [8, 30] was 10, the “Plant response rating, Ragweed” value ([9]; 125 g ai/ha) was 0 and the “Plant response rating, Ragweed” value [9, 31] was 0. For the same molecule, the “Oat, Wild plant response rating” value [10, 29] was 0, the “Plant response rating, Oat, Wild” value [10, 30] was 0 and the “Plant response rating, Sedge, Umbrella” value [11] was 0. The “Ryegrass, Italian plant response rating” value [12, 29] was 0, the “Plant response rating, Ryegrass, Italian” value [12, 30] was 20 and the “Plant response rating, Oat, Wild” value ([13]; 125 g ai/ha) was 0. For the same molecule, the “Plant response rating, Oat, Wild” value [13, 31] was 0, the “Plant response rating, Rice” value [14] was 0 and the “Plant response rating, Ducksalad” value [15] was 0. The “Plant response rating, Blackgrass” value ([16]; 125 g ai/ha) was 0, the “Plant response rating, Blackgrass” value [16, 31] was 30 and the “Plant response rating, Pigweed, Palmer” value [17] was 20. The “Plant response rating, Barnyardgrass” value [18] was 0, the “Kochia plant response rating” value [19, 29] was 10 and the “Plant response rating, Kochia” value [19, 30] was 50. The “Plant response rating, Soybean” value ([20]; 125 g ai/ha) was 0, the “Plant response rating, Soybean” value [20, 31] was 0 and the “Plant response rating, Wheat” value ([21]; 125 g ai/ha) was 0. The “Plant response rating, Wheat” value [21, 31] was 0, the “Plant response rating, Kochia” value ([22]; 125 g ai/ha) was 0 and the “Plant response rating, Kochia” value [22, 31] was 40. The “Foxtail, Giant plant response rating” value [23, 29] was 30, the “Plant response rating, Foxtail, Giant” value [23, 30] was 80 and the “Plant response rating, Galium” value [24] was 30. The “Plant response rating, Ryegrass, Italian” value ([25]; 125 g ai/ha) was 30, the “Plant response rating, Ryegrass, Italian” value [25, 31] was 50 and the “Soybean plant response rating” value [26, 29] was 40. For the same molecule, the “Plant response rating, Soybean” value [26, 30] was 40, the “Plant response rating, Pigweed, Palmer” value ([27]; 125 g ai/ha) was 0 and the “Plant response rating, Pigweed, Palmer” value [27, 31] was 20. The “Ragweed plant response rating” value [28, 29] was 0 and the “Plant response rating, Ragweed” value [28, 30] was 20.
